Source: patent US20100267822A1, “AURONES AS ESTROGEN RECEPTOR MODULATORS AND THEIR USE IN SEX HORMONE DEPENDENT DISEASES” (priority 2009, published 2010)

Columns and labels:
[1] = molecular target: T1, Recombinant human ERalpha protein (Homo sapiens, UniProt P03372); assay: [3H] estradiol binding to recombinant human ERalpha (radioligand displacement, MDS cat No. 226010); details: test compound 10 μM; 0.5 nM [3H] estradiol; 2 hours at 25° C.; in comparison to the vehicle control (1% DMSO)
T1 construct: purchased MDS Pharma Services 226010; host or cells: insect Sf9 cells (printed as '519')
T1 sequence (P03372 1-595): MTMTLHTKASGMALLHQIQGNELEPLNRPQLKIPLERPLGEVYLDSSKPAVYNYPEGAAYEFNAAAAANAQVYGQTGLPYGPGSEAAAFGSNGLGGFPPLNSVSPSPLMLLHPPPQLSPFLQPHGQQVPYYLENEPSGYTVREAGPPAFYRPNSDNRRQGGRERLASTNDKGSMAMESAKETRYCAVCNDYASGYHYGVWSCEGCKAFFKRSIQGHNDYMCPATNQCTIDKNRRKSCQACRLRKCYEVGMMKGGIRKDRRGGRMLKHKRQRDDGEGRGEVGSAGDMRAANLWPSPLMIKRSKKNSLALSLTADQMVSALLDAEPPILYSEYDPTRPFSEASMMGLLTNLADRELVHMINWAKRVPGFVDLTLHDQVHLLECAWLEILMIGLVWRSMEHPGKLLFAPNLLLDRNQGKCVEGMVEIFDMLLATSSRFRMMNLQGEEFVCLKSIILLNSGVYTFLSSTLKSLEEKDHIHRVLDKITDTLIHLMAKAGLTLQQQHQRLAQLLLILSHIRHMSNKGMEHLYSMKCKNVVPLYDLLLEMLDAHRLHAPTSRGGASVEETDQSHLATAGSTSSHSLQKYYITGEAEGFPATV
Method: (§1) Recombinant human ERalpha protein isolated from insect 519 cells (MDS Pharma Services: cat No. 226010) was incubated with the test substance (dissolved in 1% DMSO) and 0.5 nM [^3H] estradiol for 2 hours at 25° C. in an incubation buffer (10 mM TrisHCl pH 7.4, 0.1% BSA, 10% Glycerol, 1 mM DTT). At the end of the incubation period, receptor-bound [^3H] estradiol was quantified. Stimulating or inhibiting effects equal or larger than 50% in comparison to vehicle control (1% DMSO) were considered to be significant. The final concentration of the test compound was 10 μM.
(§2) The assays described in Examples 4 and 5 were conducted by MDS (catalogue number 226010 for ERalpha and 226050 for ERbeta, respectively) following procedures established in literature (Obourn et al., Biochemistry 1993, 32: 6229-6236).

[2] = molecular target: T2, Recombinant human ERbeta protein (Homo sapiens, UniProt Q92731); assay: [3H] estradiol binding to recombinant human ERbeta (radioligand displacement, MDS cat No. 226050); details: test compound 10 μM; 0.5 nM [3H] estradiol; 2 hours at 25° C.; in comparison to the vehicle control (1% DMSO)
T2 construct: purchased MDS Pharma Services 226050; host or cells: insect Sf9 cells
Method: as §1, with “ERbeta” for “ERalpha”, “Sf9” for “519”, “226050)” for “226010)”
as §2

T2 sequence (Q92731 whole entry): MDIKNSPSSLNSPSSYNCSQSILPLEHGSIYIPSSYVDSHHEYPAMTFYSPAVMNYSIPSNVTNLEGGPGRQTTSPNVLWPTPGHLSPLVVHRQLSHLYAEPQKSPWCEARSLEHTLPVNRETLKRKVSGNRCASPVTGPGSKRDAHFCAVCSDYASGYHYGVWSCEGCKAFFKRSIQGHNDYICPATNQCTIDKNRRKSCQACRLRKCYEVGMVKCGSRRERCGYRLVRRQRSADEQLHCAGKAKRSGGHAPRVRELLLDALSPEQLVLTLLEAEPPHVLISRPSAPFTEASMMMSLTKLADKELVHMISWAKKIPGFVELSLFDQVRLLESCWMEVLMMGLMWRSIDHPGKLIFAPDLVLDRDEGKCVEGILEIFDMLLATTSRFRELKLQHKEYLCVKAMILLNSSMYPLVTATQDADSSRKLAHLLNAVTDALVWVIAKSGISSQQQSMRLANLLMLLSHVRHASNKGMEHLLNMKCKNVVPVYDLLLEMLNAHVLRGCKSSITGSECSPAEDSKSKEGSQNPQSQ

| Structure (SMILES) | inhibition at 10 µM [1] [%] | inhibition at 10 µM [2] [%] |
| --- | --- | --- |
| O=C1/C(=C/c2ccc(O)cc2O)Oc2cc(O)cc(O)c21 [SM29 (3), 2′,4,4′,6-Tetrahydroxyaurone] | 2 | 13 |
| O=C1/C(=C/c2ccc(O)cc2)Oc2cc(O)cc(O)c21 [SM30 (3), 4,4′,6-Trihydroxyaurone] | 18 | 91 |
